For assay [1], the target named is T1, human recombinant Monoacylglycerol Lipase (Homo sapiens, UniProt Q99685).
T1 sequence (Q99685 1-303): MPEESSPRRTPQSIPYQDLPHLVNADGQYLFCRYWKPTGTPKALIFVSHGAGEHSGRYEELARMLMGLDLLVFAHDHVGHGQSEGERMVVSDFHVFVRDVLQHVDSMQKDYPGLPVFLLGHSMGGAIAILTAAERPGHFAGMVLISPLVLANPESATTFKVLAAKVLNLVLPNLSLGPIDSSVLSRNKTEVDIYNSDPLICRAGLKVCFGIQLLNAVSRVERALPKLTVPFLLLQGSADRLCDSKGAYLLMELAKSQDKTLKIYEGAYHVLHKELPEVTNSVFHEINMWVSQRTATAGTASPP
Kind of assay: MAGL inhibition enzymatic assay (7-HCA fluorogenic substrate). Format: biochemical. Conditions: geometric mean. As for the experimental part:
Assessment of MAGL inhibition utilizes human recombinant Monoacylglycerol Lipase and the fluorogenic substrate 7-hydroxycoumarinyl arachidonate (7-HCA, Biomol ST-502). 400 nL of a test compound at decreasing concentration (ranging from 150 μM down to 1.5 nM) was spotted into a 384-well back plate (PerkinElmer, 6007279) using a Labcyte Echo, followed by addition of 10 μL of MAGL enzyme in assay buffer (50 mM HEPES, pH 7.4, 100 mM NaCl, 5 mM MgCl2, 0.1% Triton X-100 and 25% glycerin). An equal volume of 7-HCA in assay buffer with 10% DMSO was added either immediately (T=0 min) or after a 30 minute incubation (T=30 min) to initiate the reaction. The final concentration of MAGL enzyme was […] and 7-HCA substrate was 5 μM. After these dilutions, the final concentration of the test compound ranged from 3 μM to 0.03 nM. The reaction was allowed to progress for 60 minutes, after which the plate was read at an Ex/Em of 340/465. Percent inhibitions were calculated based on control wells containing no compound (0% inhibition) and a control compound (e.g., a MAGL inhibitor whose activity is known or was previously reported in the literature, such as one with about 100% inhibition). IC50 values were generated based on a four parameter fit model using ABASE software from IDBS. See e.g., Wang, Y. et al., “A Fluorescence-Based Assay for Monoacylglycerol Lipase Compatible with Inhibitor Screening,” Assay and Drug Development Technologies, 2008, Vol. 6 (3) pp 387-393 (reporting an assay for measuring MAGL activity).

The target in assay [2] is T2, human recombinant FAAH (Homo sapiens, UniProt O00519).
T2 construct: purchased Cayman 10010183
T2 sequence (O00519 1-579): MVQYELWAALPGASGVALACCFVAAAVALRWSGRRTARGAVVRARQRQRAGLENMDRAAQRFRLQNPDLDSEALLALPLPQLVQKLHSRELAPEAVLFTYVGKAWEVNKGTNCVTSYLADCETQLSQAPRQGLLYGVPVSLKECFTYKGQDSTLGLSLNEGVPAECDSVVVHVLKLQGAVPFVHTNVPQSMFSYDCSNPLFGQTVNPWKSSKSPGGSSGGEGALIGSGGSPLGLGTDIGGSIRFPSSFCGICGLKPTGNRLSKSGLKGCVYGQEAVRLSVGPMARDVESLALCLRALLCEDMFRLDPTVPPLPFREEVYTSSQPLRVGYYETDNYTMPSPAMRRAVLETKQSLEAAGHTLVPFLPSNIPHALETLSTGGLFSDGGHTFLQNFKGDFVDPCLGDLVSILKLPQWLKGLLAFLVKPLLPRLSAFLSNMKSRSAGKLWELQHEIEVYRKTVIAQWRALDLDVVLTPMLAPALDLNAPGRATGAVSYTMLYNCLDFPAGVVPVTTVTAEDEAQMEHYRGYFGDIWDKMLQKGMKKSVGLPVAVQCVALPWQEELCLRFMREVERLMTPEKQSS
Kind of assay: FAAH inhibition enzymatic assay (Arachidonoyl-AMC substrate). Format: biochemical. Conditions: 30 minute incubation; geometric mean; read-out: FAAH (T = 30 min) IC50. As for the experimental part:
Assessment of FAAH inhibition utilizes human recombinant FAAH and the fluorescent substrate, Arachidonoyl-AMC. 400 nL of a test compound at decreasing concentrations was spotted into a 384-well back plate (PerkinElmer, 6007279) using a Labcyte Echo, followed by addition of 10 μl of FAAH enzyme (Cayman 10010183) in assay buffer (50 mM Tris, pH 9.0, 1 mM EDTA, i.e. ethylenediaminetetraacetic acid). After a 30 minute incubation at room temperature, 10 μL of Arachidonyl-AMCA was added in assay buffer with 16% DMSO. […] The reaction was allowed to progress for 60 minutes, after which the plate was read on a Molecular Devices FlexStation reader at an Ex/Em of 355/460. Percent inhibitions were calculated based on controls wells containing either no compound (0% inhibition) or a control compound (e.g., an FAAH inhibitor whose activity is known or was previously reported in the literature, such as one with about 100% inhibition). IC50 values were generated based on a four parameter fit model using ABASE software from IDBS.

[3] abbreviates: 30 minute incubation before substrate, read-out: MAGL (T = 30 min) IC50.
The mark [4] stands for this setting: substrate added immediately (T=0 min), read-out: MAGL (T = 0 min) IC50.

The structures appear in SMILES notation. Where two headings read alike, the source gives them in different places.

IC50 data for three compounds are collected here from patent US20210309669A1, “Heterocyclic Spiro Compounds As MAGL Inhibitors” (Pfizer Inc., priority 2018, published 2021).

For `O=C(OC(C(F)(F)F)C(F)(F)F)N1CCC2(CC1)C[C@@H](NS(=O)(=O)CC1CC1)CO2` [Example 1, 1,1,1,3,3,3-Hexafluoropropan-2-yl (3R)-3-{[(cyclopropylmethyl)sulfonyl]amino}-1-oxa-8-azaspiro[4.5]decane-8-carboxylate], the IC50 (in general, the concentration that inhibits the measured activity by half) in assay [1] (setting [3]) is 27.6 nM; in assay [1] (setting [4]), 292 nM; in assay [2], above 30000 nM.
As to `O=C(OC(C(F)(F)F)C(F)(F)F)N1CCC2(CC1)C[C@@H](NS(=O)(=O)C1CC1)CO2` [Example 2, 1,1,1,3,3,3-Hexafluoropropan-2-yl (3R)-3-[(cyclopropylsulfonyl)amino]-1-oxa-8-azaspiro[4.5]decane-8-carboxylate], the IC50 in assay [1] (setting [3]) is 34.7 nM; in assay [1] (setting [4]) it was 369 nM; in assay [2], above 30000 nM.
Take `O=C(OC(C(F)(F)F)C(F)(F)F)N1CCC2(CCC(NS(=O)(=O)CC3CC3)CO2)CC1` (stereo not drawn) [Example 3, 1,1,1,3,3,3-Hexafluoropropan-2-yl 3-{[(cyclopropylmethyl)sulfonyl]amino}-1-oxa-9-azaspiro[5.5]undecane-9-carboxylate]: the IC50 is 28.5 nM in assay [1] (setting [3]), 298 nM in assay [1] (setting [4]) and above 30000 nM in assay [2].
